Earlier results as cited in patent publication US9198430B2, “Anti-parasitic composition comprising a macrocyclic lactone and levamisole and method of treatment of parasitic infestation” (BAYER NEW ZEALAND LIMITED, priority 2011, dated 2015).
Like-named read-outs stand apart in the source and are kept apart here.

Conditions: unlabelled doramectin 0.2 mg/kg bodyweight

Residues of Doramectin, Fat (Day 21): 182 µg/kg | Residues of Doramectin, Injection (site) (Day 21): 1900 µg/kg | Residues of Doramectin, Kidney (Day 21): 11 µg/kg | Residues of Doramectin, Liver (Day 21): 107 µg/kg | Residues of Doramectin, Muscle (Day 21): <7 µg/kg | Residues of Doramectin, Fat (Day 28): 94 µg/kg | Residues of Doramectin, Injection (site) (Day 28): 380 µg/kg | Residues of Doramectin, Kidney (Day 28): 8.8 µg/kg | Residues of Doramectin, Liver (Day 28): 66 µg/kg | Residues of Doramectin, Muscle (Day 28): <4 µg/kg | Residues of Doramectin, Fat (Day 35): 57 µg/kg | Residues of Doramectin, Injection (site) (Day 35): 930 µg/kg | Residues of Doramectin, Kidney (Day 35): <4.5 µg/kg | Residues of Doramectin, Liver (Day 35): 29 µg/kg | Residues of Doramectin, Muscle (Day 35): <3 µg/kg
Compound: CO[C@H]1C[C@H](O[C@H]2[C@H](C)O[C@@H](O[C@@H]3/C(C)=C/C[C@@H]4C[C@@H](C[C@]5(C=C[C@H](C)[C@@H](C6CCCCC6)O5)O4)OC(=O)[C@@H]4C=C(C)[C@@H](O)[C@H]5OC/C(=C\C=C\[C@@H]3C)[C@]54O)C[C@@H]2OC)O[C@@H](C)[C@@H]1O [doramectin, Doramectin]
